Results as given in patent US10981932B2, “Macrocyclic indole derivatives” (Bayer Aktiengesellschaft, priority 2016, dated 2021).
Structures can show the parent of a compound that is named as a salt. Where two headings read alike, the source gives them in different places.

Key:
[1] = target: MCL-1 (Homo sapiens, UniProt Q07820); experiment: Protein-protein interaction assay MCL-1/Noxa BH3 peptide (MCL-1 assay), TR-FRET; type: binding; conditions: MBP-MCL-1 / Noxa BH3-derived peptide, median
How it was run: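 Inhibition values were normalized between DMSO controls with all reagents and controls lacking MCL-1. The binding competition used 1 nM MBP-MCL-1 in pH 7 Tris buffer containing 50 mM KF and 100 mM NaCl, with a 10 min compound preincubation at 22 °C.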

[2] = test system: SUDHL5; experiment: Induction of caspase-3/7 activity (Caspase-Glo 3/7), SUDHL5; type: cell-based; conditions: caspase-3/7 induction, SUDHL5 cells, 3 h treatment, median
How it was run: (§1)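 Apoptosis induction measured as caspase-3/7 activity (Caspase-Glo 3/7) in DLBCL lines after 3 h treatment at 37 °C; EC50 derived relative to the reference compound's maximal induction, with C0 fixed at 1.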

[3] = test system: SUDHL10; experiment: Induction of caspase-3/7 activity (Caspase-Glo 3/7), SUDHL10; type: cell-based; conditions: caspase-3/7 induction, SUDHL10 cells, 3 h treatment, median
How it was run: as §1

[4] = test system: SUDHL5; experiment: Anti-proliferative effect (CellTiter-Glo, 72 h), SUDHL5; type: cell-based; conditions: SUDHL5 cells, antiproliferation, 72 h incubation, median, read-out: Antiproli SUDHL5 [M] (median)
How it was run: (§2)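 Luminescence from CellTiter-Glo, read 10 min after reagent addition, reports viable cell content after 72 h of compound treatment at 37 °C. A reference plate read at day 0 gives the starting baseline.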

[5] = test system: SUDHL10; experiment: Anti-proliferative effect (CellTiter-Glo, 72 h), SUDHL10; type: cell-based; conditions: SUDHL10 cells, antiproliferation, 72 h incubation, median, read-out: Antiproli SUDHL10 [M] (median)
How it was run: as §2

[6] = test system: OPM2; experiment: Anti-proliferative effect (CellTiter-Glo, 72 h), OPM2; type: cell-based; conditions: OPM2 cells, median, read-out: IC50 antiproliferation assay OPM2 [M] (median)
How it was run: as §2

[7] = test system: A2780; experiment: Anti-proliferative effect (CellTiter-Glo, 72 h), A2780; type: cell-based; conditions: A2780 cells, median, read-out: IC50 antiproliferation assay A2780 [M] (median)
How it was run: as §2

[8] = test system: SUDHL5; experiment: Induction of cytotoxicity (CellTiter-Glo, 5 h), SUDHL5
[9] = test system: SUDHL10; experiment: Induction of cytotoxicity (CellTiter-Glo, 5 h), SUDHL10
[10] = Homo sapiens, SU-DHL-5, 5 h, read-out: Cytotox SUDHL5 [M] (median), SUDHL5 cells, cytotoxicity induction, CellTiter-Glo, 5 h incubation, median
[11] = Homo sapiens, SU-DHL10, 5 h, read-out: Cytotox SUDHL10 [M] (median), SUDHL10 cells, cytotoxicity induction, CellTiter-Glo, 5 h incubation, median
[12] = read-out: Cytotox SUDHL5 [M] (median), SUDHL5 cells, cytotoxicity induction, CellTiter-Glo, 5 h incubation, median
[13] = read-out: Cytotox SUDHL10 [M] (median), SUDHL10 cells, cytotoxicity induction, CellTiter-Glo, 5 h incubation, median

Chain of MCL-1 (Q07820 whole entry): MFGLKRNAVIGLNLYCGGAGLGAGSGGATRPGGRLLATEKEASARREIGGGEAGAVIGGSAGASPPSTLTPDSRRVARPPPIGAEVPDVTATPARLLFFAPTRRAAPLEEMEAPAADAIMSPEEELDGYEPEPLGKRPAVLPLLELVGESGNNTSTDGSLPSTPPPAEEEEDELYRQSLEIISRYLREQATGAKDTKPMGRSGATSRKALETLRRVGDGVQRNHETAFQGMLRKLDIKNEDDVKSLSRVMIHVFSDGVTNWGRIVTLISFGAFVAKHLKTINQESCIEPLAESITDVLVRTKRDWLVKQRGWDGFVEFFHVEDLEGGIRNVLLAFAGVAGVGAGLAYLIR

| IC50 [1] [µM] | EC50 ([2]; Homo sapiens, SU-DHL-5, 3 h) [µM] | EC50 ([3]; Homo sapiens, SU-DHL10, 3 h) [µM] | IC50 ([4]; Homo sapiens, SU-DHL-5, 72 h) [M] | IC50 ([5]; Homo sapiens, SU-DHL10, 72 h) [M] | IC50 ([7]; Homo sapiens, A2780, 72 h) [M] | EC50 [2] [µM] | EC50 [3] [µM] | IC50 [4] [M] | IC50 [5] [M] | IC50 [7] [M] | Structure (SMILES) | IC50 ([6]; Homo sapiens, OPM-2, 72 h) [M] | IC50 [8, 10] [M] | IC50 [9, 11] [M] | IC50 [6] [M] | IC50 [8, 12] [M] | IC50 [9, 13] [M] |
| --- | --- | --- | --- | --- | --- | --- | --- | --- | --- | --- | --- | --- | --- | --- | --- | --- | --- |
| 0.0173 | 23.9 | > 33 | > 3.3e-05 | 1.44e-05 | 2.05e-05 | – | – | – | – | – | CN1CCCn2c(C(=O)O)c(CCCOc3cccc4ccccc34)c3cccc(c32)-c2cnn(C)c2C1 (racemic) [Example 1-96, (rac)-7,9-dimethyl-1-[3-(naphthalen-1-yloxy)propyl]-4,5,6,7,8,9-hexahydropyrazolo[3′,4′:7,8][1,5]diazecino[9,10,1-hi]indole-2-carboxylic Acid] | > 3.3e-05 | 1.84e-05 | 2.95e-05 | – | – | – |
| 0.0938 | – | – | – | – | – | 17.9 | 15.1 | 1.06e-05 | 6.64e-06 | 1.16e-05 | CN1CCCn2c(C(=O)O)c(CCCOc3cccc4ccccc34)c3cccc(c32)-c2c(COc3ccc(C4CCOCC4)cc3)nn(C)c2C1 (single isomer, unassigned) [Example 1-59, (−)-7,9-dimethyl-1-[3-(naphthalen-1-yloxy)propyl]-11-{[4-(tetrahydro-2H-pyran-4-yl)phenoxy]methyl}-4,5,6,7,8,9-hexahydropyrazolo[3′,4′:7,8][1,5]diazecino[9,10,1-hi]indole-2-carboxylic Acid] | – | – | – | 1.26e-05 | 1.24e-05 | 2.01e-05 |

More lines, now with the values behind:

| Structure (SMILES) | IC50 [1] [µM] | EC50 ([2]; Homo sapiens, SU-DHL-5, 3 h) [µM] | EC50 ([3]; Homo sapiens, SU-DHL10, 3 h) [µM] | IC50 ([4]; Homo sapiens, SU-DHL-5, 72 h) [M] | IC50 ([5]; Homo sapiens, SU-DHL10, 72 h) [M] | IC50 ([7]; Homo sapiens, A2780, 72 h) [M] | EC50 [2] [µM] | EC50 [3] [µM] | IC50 [4] [M] | IC50 [5] [M] | IC50 [7] [M] | IC50 ([6]; Homo sapiens, OPM-2, 72 h) [M] | IC50 [8, 10] [M] | IC50 [9, 11] [M] | IC50 [6] [M] | IC50 [8, 12] [M] | IC50 [9, 13] [M] |
| --- | --- | --- | --- | --- | --- | --- | --- | --- | --- | --- | --- | --- | --- | --- | --- | --- | --- |
| Cn1nc(CN2CCOCC2)c2c1COCC=CCn1c(C(=O)O)c(CCCOc3cccc4ccccc34)c3cccc-2c31 (racemic) [Example 132, (rac)-(E/Z)-1-methyl-3-(morpholin-4-ylmethyl)-7-[3-(naphthalen-1-yloxy)propyl]-1,10,13,15-tetrahydropyrazolo[4′,3′:9,10][1,6]oxazacycloundecino[8,7,6-hi]indole-8-carboxylic Acid] | 0.0335 | 25.4 | > 33 | 1.78e-05 | 6e-06 | 1.34e-05 | – | – | – | – | – | 1.17e-05 | 2.81e-05 | 1.69e-05 | – | – | – |
| Cc1c2c(nn1CCN1CCOCC1)COCCCCn1c(C(=O)O)c(CCCOc3cccc4ccccc34)c3cccc-2c31 (racemic) [Example 053, (rac)-3-methyl-2-[2-(morpholin-4-yl)ethyl]-7-[3-(naphthalen-1-yloxy)propyl]-2,10,11,12,13,15-hexahydropyrazolo[4′,3′:9,10][1,6]oxazacycloundecino[8,7,6-hi]indole-8-carboxylic Acid] | 0.00341 | 2.51 | 5.67 | 1.47e-06 | 7.88e-06 | > 3.3e-05 | – | – | – | – | – | 1.11e-05 | 3e-06 | 7.75e-06 | – | – | – |
| CN1CCCn2c(C(=O)O)c(CCCOc3cccc4ccccc34)c3cccc(c32)-c2c(CNCC(F)(F)F)nn(C)c2C1 (single isomer, unassigned; enantiomer 1) [Example 130, 7,9-dimethyl-1-(3-(naphthalen-1-yloxy)propyl-11-{[(2,2,2-trifluoroethyl)amino]methyl}-4,5,6,7,8,9-hexahydropyrazolo[3′,4′:7,8][1,5]diazecino[9,10,1-hi]indole-2-carboxylic acid-N-ethylethanamine Salt (Enantiomer 1)] | 0.0331 | 18.9 | 24.4 | 1.17e-05 | 6.42e-06 | 1.11e-05 | – | > 33 | – | – | – | – | 1.53e-05 | 1.71e-05 | 6e-06 | – | > 3.3e-05 |
| CCOCc1nn(C)c2c1-c1cccc3c(CCCOc4cccc5ccccc45)c(C(=O)O)n(c13)CCCCOC2 (single isomer, unassigned; enantiomer 2) [Example 170, 3-(ethoxymethyl)-1-methyl-7-[3-(naphthalen-1-yloxy)propyl]-1,10,11,12,13,15-hexahydropyrazolo[4′,3′:9,10][1,6]oxazacycloundecino[8,7,6-hi]indole-8-carboxylic Acid (Enantiomer 2)] | 0.00297 | – | – | – | – | – | 5.36 | 15.6 | 1.01e-05 | 4.36e-06 | 2.67e-05 | – | – | – | 1.34e-05 | 6.94e-06 | 2e-05 |
